{
  "source": "patent US20190008810A1",
  "about": "“METHOD FOR PREVENTION, TREATMENT AND ALLEVIATION OF INFECTIOUS DISEASES AND DISORDERS” (REPLICON HEALTH OY, priority 2016, published 2019)",
  "key": {"[1]": {"tested_on": "seasonal flu or similar infectious disease", "assay_type": "in vivo, human", "conditions": "S1, 2 or 3 times 1×500 mg during work days, before DGA"}, "[2]": {"tested_on": "acute bowels inflammation caused by diverticulitis", "assay": "Healing from acute inflammatory bowels disease (diverticulitis) in S4, Example 1e", "assay_type": "in vivo, human", "conditions": "S4, 1000 mg 1-2 times a day, before DGA", "from_the_text": "In Example 1e the resolution of gastrointestinal tract infection in another subject 4 (S4) has been shown. Like in S1 also in S4 the HO-1 pathway is clearly activated by the DGA Activation. This is indirectly shown by the clear reduction of blood bilirubin in Table 1e. […] During last few years these seldom but acute inflammations in the gastrointestinal tract have been mostly in the colon and caused by inflammation in Colonic diverticula. […] The only functioning therapy for inflammatory bowels disease has been the administration of strong intravenous antibiotics.\nLike other tests with unhealthy humans also this test was done because there were no other efficient substances available. When symptoms of increased bowels inflammation/diverticulosis started S4 was on holiday abroad with very difficult access to any specialized doctor not to mention any hospital. […] Simultaneously with inflammatory symptoms and maybe partially enhancing them S4 experienced constipation.\nBy Saturday night on the 4th day of gradually increasing acute inflammation in the colon, S4 decided to test whether DGA Activation in combination with paracetamol would assist in resolving this already rather serious inflammation. There were no other available options at that moment. This decision was also supported by confidential information received on positive results with S1 (Examples 1b and 1c).\nSaturday night at 0737 pm first 260 mg of D-glyceric acid calcium salt mixed into water was taken with 2×500 mg of paracetamol. Another additional 260 mg dose of DGAcs mixed into water was taken the same night at 1020 pm. Altogether the starting dose was 9 mg/kg i.e. relatively high. High initial dose was chosen because of high level of inflammation."}},
  "data": [
    {"smiles": "CC(=O)Nc1ccc(O)cc1", "note": "[paracetamol, reference compound]", "values": [
      {"measurement": "effect on general symptoms and fever", "setting": "[1]", "value": "temporary relief but no cure"},
      {"measurement": "effect on pains and symptoms", "setting": "[2]", "value": "helped to relief pains for 2-3 days but the symptoms got worse"}
    ]}
  ]
}
